# Test results: patent EP0678295B1, “Manufacturing process of phospholipideactive principle complexes useful for the liposome preparation” (Citernesi, Ugo, priority 1994, dated 1995)
# Assay: Measurement of entrapment efficiency (ultracentrifugation of liposomes, HPLC determination of Vitamin A in both phases)
# Format: physicochemical
# Settings: liposomes from gelified phospholipid /Vitamin A complex (Example 1A) plus physiologic solution, 325 nm
# Method: Measurement of entrapment efficiency.
# A gelified phospholipid /Vitamin A complex was prepared according to the procedure described in Example 1A.
# Liposomes were then obtained by adding a physiologic solution to the complex and subsequent stirring of the mixture.
# The obtained liposomes have been subjected to ultracentrifugation in order to separate the liposome phase from the water phase. In both phases Vitamin A was determined as follows.
# Phospholipid /vitamin A pellet resulting from the ultracentrifugation was dissolved in hexane, filtered under vacuum (0.2 .10^5 Pa) and determined by HPLC (high performance liquid chromatography) using two different HPLC columns: • 1) Column: Chromsep Nucleosil C18 100 mm x 3 ID Eluent: methanol Flow: 1 ml/min. Detecting wl: 325 nm • 2) Column: Pertsil 10 ODS Eluent: Methanol/water (90/10) Flow: 1ml/min. Detecting wl: 325 nm
# The water phase coming from the ultracentrifugation was analyzed for its vitamin A content using the same HPLC procedure and columns.
compound,measurement,setting,value
"CC(=O)OC/C=C(C)/C=C/C=C(C)/C=C/C1=C(C)CCCC1(C)C [Vitamin A, Vitamin A acetate]",Vitamin A detected in the liposome phase,pellet after ultracentrifugation dissolved in hexane,almost all
same,Vitamin A detected in the aqueous phase,water phase after ultracentrifugation,No Vitamin A was detected
